According to patent US20090304615A1, “TRICYCLIC COMPOUNDS AS MELANOGENESIS MODIFIERS AND USES THEREOF” (priority 2007, published 2009):
Counter-ions that a name gives are not always drawn.

System: cultured murine melanocytes (melan-a)
Experiment: Melanin assay in cultured murine melanocytes (melan-a)
Type: cell-based
Settings: Mus musculus, melan-a cells; for inhibition at 1 µM / inhibition at 5 µM: melanin formation, 72 hours of incubation; for IC50: melanin synthesis, read-out: IC50 range
Protocol: The Spectrum Collection library consisting of 2000 drug compounds or natural products was screened to identify novel pigmentation inhibitors or stimulators in cultured murine melanocytes (melan-a). Compounds were dissolved in dimethylsulfoxide (DMSO) to a final concentration of 10 mM. Screening was performed with cultured melanocytes in 24-well plates followed by melanin assay (see below). […] DMSO was used as a negative control and the widely used depigmenting agent, hydroquinone, was used as a positive control on every plate. […] All compounds were added at the indicated final concentrations. Cells were harvested after 72 hours of incubation, and melanin assay was performed. For further test and mechanism of action studies, the compounds were purchased from either Sigma or Microsoure. These compounds were dissolved in dimethylsulfoxide (DMSO) to a final concentration of 10 mM, and were tested for their effect on melanin synthesis at the indicated final concentrations. For the primary and secondary screening, cells were harvested and dissolved in 200 μl of 2N NaOH in 20% DMSO at 70° C. A 180-μl aliquot of the resulting solution was measured for absorbance at 490 nm. […] The lysates were centrifuged at 14,000 rpm for 10 minutes at 4° C. BCA protein assay kit (Pierce) was used to measure the protein concentrations of the supernatants, and bovine serum albumin was used as a standard. […] A 180-μl aliquot of the resulting solution was measured for absorbance at 490 nm. The melanin contents were normalized to the total amount of protein.

SMILES	IC50 [nM]	inhibition at 1 µM [%]	inhibition at 5 µM [%]
CNCCC=C1c2ccccc2CCc2ccccc21 [compound 1, Nortriptyline]	1000 to 2500	39	58
CN(C)CCC=C1c2ccccc2CCc2ccccc21 [compound 2, Amitriptyline hydrochloride]	< 1000	51	65
CC(CN(C)C)CN1c2ccccc2CCc2ccccc21 (centres unmarked) [compound 3, Trimpramine maleate]	1000 to 2500	28	48

Continued, in another order:

IC50 [nM]	SMILES	inhibition at 1 µM [%]	inhibition at 5 µM [%]
< 1000	CN(C)CCCN1c2ccccc2CCc2ccccc21 [compound 5, Imipramine hydrochloride]	34	60
2500 to 5000	CNCCCN1c2ccccc2CCc2ccccc21 [compound 6, Despramine hydrochloride]	–	–
5000 to 10000	CNCCCC1c2ccccc2C=Cc2ccccc21 [compound 8, Protriptyline hydrochloride]	–	–
